These results are taken from paper PMC4792161, “A novel pyrazole derivative protects from ovariectomy-induced osteoporosis through the inhibition of NADPH oxidase” (Scientific Reports, 2016).

The structures appear in SMILES notation.

One data set has as its target xanthine oxidase (Bos taurus, UniProt P80457). The data set can be described thus: Xanthine oxidase assay (lucigenin). Type of data set: biochemical. The method, then:
Xanthine oxidase activity was measured by lucigenin. Reaction mixtures contained 0.1 mU xanthine oxidase, 0.25 mM Xanthine, and 0.4 mM lucigenin with the indicated inhibitor (0–20 μM). Luminescence measured over 30 min at 37 °C with luminometor (DTX800, Beckman coulter).

A further data set concerns the target glucose oxidase (Aspergillus niger, UniProt P13006). As to the kind of experiment: Glucose oxidase assay (lucigenin). Type of data set: biochemical. On the procedure: Glucose oxidase activity was measured by lucigenin. Reaction mixtures contained 0.75 mM glucose, 0.25 mg/ml glucose oxidase, and 0.4 mM lucigenin with the indicated inhibitor (0–20μM). Luminescence was measured over 30 min at 37 °C with luminometor (DTX800, Beckman coulter).

Data set [1] can be described thus: Pharmacokinetics after IV and oral administration to rats. In kind it is in vivo. The method, then: Supplementary Table S1. Pharmacokinetic parameters of Ewha-89403 following IV and oral administration at the doses of 1 mg/kg and 10 mg/kg, respectively, to rats (n=4-5) PK Parameters IV Injection Oral Administration
Absolute Bioavailability (BA) = 4.3 %
Supplementary Table S2. Pharmacokinetic parameters of Ewha-18278 following IV and oral administration at the doses of 2 mg/kg and 20 mg/kg, respectively, to rats (n=5-6) […]
Absolute Bioavailability (BA) = 63.8 %

A further data set deals with T1, human Nox2 (Homo sapiens, UniProt P04839).
T1 construct: made in house; host or cells: transgenic Drosophila (Duox knockdown, Da-GAL4 driven UAS-hNOX2); membrane-enriched fly homogenate
T1 sequence (P04839 2-570 limits assumed): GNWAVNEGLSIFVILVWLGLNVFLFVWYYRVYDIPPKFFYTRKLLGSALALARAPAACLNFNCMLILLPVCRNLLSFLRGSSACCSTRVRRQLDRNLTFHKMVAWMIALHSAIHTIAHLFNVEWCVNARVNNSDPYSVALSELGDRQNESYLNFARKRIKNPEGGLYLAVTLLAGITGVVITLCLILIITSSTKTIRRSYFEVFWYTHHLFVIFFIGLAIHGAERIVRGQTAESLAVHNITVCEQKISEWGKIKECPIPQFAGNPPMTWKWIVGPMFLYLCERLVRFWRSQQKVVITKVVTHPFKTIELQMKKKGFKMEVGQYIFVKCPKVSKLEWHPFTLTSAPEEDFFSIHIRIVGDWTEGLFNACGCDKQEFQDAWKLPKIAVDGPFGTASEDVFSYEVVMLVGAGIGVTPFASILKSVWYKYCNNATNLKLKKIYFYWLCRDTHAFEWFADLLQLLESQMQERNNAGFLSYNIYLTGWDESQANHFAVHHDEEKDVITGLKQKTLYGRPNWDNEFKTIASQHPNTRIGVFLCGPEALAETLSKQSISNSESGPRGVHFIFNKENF
The data set can be described thus: Nox inhibitor screening, Drosophila membranes over-expressing human Nox2, ROS chemiluminescence. Type of data set: biochemical. The following applies: hNox2 Drosophila membranes.

The target in another data set is T2, human Nox1 (Homo sapiens, UniProt Q9Y5S8).
T2 construct: made in house; host or cells: transgenic Drosophila (Duox knockdown, Da-GAL4 driven UAS-hNOX1); membrane-enriched fly homogenate
T2 sequence (Q9Y5S8 1-564): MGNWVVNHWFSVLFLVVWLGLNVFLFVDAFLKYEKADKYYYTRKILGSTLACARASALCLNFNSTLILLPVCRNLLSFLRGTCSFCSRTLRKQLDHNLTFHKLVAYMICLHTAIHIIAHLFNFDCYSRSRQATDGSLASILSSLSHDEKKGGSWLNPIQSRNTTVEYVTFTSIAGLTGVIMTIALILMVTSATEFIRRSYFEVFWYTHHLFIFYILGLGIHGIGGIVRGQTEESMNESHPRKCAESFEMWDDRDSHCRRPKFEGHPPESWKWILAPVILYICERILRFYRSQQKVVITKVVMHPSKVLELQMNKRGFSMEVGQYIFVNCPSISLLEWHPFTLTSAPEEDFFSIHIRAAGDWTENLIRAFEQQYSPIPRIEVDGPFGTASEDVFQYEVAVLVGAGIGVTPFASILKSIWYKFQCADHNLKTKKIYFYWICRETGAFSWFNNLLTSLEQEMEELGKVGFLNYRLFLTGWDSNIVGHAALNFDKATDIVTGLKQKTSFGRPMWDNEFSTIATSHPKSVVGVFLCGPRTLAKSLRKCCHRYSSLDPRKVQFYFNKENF
As to the kind of experiment: Nox inhibitor screening, Drosophila membranes over-expressing human Nox1, ROS chemiluminescence. Type of data set: biochemical. The following applies: hNox1 Drosophila membranes.

The target of another data set is T3, human Nox4 (Homo sapiens, UniProt Q9NPH5).
T3 construct: made in house; host or cells: transgenic Drosophila (Duox knockdown, Da-GAL4 driven UAS-hNOX4); membrane-enriched fly homogenate
T3 sequence (Q9NPH5 1-578): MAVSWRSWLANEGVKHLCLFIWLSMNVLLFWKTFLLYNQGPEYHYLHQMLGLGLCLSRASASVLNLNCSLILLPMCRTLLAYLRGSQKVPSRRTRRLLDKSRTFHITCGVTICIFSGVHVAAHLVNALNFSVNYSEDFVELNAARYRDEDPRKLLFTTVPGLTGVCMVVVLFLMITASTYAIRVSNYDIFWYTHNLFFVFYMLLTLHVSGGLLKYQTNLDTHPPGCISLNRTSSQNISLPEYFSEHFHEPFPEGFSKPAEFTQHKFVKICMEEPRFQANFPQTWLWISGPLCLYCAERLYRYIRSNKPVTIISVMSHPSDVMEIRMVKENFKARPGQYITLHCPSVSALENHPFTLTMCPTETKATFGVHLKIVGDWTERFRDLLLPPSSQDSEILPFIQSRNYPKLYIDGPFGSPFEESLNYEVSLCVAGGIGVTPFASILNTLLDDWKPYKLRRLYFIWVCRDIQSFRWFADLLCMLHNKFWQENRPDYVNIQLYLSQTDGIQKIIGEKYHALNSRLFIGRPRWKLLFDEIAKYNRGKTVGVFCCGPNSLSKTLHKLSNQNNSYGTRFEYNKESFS
As to the kind of experiment: Nox inhibitor screening, Drosophila membranes over-expressing human Nox4, ROS chemiluminescence. In kind it is biochemical. To be noted: hNox4 Drosophila membranes.

Chain of xanthine oxidase (P80457 2-1332): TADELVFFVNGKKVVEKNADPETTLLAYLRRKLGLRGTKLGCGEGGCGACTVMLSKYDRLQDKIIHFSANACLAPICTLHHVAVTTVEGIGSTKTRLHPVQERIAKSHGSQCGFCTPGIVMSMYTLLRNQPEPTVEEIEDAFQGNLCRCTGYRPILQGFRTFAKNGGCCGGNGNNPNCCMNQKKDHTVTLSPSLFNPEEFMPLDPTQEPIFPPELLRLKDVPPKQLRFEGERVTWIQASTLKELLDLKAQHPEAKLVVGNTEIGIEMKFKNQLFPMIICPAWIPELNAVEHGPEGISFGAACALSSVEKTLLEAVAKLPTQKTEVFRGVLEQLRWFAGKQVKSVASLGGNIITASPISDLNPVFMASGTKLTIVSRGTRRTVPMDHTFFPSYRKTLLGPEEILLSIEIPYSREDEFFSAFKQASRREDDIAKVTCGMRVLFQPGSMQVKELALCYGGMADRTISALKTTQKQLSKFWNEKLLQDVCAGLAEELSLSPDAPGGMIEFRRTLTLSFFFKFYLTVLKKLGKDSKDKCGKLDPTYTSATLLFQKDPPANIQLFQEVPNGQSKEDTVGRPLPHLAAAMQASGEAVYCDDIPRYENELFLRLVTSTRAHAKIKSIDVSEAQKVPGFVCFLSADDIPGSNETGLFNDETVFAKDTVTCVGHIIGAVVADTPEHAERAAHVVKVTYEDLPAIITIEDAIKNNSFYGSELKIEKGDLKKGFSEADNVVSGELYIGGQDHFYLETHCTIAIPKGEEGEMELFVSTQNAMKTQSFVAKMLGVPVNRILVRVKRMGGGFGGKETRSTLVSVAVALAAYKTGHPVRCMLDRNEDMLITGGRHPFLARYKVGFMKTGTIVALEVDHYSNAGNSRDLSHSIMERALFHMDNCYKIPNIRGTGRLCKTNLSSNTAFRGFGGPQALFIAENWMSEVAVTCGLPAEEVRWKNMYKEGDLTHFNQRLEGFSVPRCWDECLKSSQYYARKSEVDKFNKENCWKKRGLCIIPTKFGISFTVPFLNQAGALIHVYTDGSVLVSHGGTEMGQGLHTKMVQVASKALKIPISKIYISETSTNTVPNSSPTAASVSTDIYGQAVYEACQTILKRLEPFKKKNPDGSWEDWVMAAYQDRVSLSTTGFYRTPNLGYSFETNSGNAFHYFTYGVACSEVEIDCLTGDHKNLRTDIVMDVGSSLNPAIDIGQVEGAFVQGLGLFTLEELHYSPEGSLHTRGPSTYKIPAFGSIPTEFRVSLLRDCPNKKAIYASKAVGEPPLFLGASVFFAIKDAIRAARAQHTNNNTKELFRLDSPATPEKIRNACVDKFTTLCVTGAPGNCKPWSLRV
Chain of glucose oxidase (P13006 17-605, species assumed): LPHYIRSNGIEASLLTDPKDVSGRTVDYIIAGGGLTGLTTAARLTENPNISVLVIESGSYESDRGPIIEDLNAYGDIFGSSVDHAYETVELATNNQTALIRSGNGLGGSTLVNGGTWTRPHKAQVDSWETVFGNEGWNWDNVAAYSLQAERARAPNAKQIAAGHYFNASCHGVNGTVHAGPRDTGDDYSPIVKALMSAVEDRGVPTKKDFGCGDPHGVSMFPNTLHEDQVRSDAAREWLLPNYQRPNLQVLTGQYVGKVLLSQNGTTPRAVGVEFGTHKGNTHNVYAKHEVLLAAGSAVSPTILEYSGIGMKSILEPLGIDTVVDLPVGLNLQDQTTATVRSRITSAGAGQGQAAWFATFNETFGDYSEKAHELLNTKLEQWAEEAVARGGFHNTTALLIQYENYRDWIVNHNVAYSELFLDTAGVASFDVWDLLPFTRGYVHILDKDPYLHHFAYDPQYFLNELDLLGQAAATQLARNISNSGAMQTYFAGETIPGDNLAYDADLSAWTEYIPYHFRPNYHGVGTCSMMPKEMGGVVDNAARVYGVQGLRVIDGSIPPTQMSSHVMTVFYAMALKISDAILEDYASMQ
Text for human Nox1: (§1) Purified Drosophila membranes expressing human Nox1, Nox2, or Nox4 were used to monitor ROS production by determining the oxidation of lucigenin, evident as chemiluminescence, in the absence or presence of chemical compound[18].
(§2) Drosophila membranes specifically overexpressing hNox1, hNox2, and hNox4 were subjected into ROS measurement with Diogene.
(§3) The genotypes used were human Nox1 (UAS-hNOX1/UAS-DUOX-RNAi; Da-GAL4/+), Nox2 (UAS-hNOX2/UAS-DUOX-RNAi; Da-GAL4/+) and Nox4 (UAS-hNOX4/UAS-DUOX-RNAi; Da-GAL4/+). Transgenic flies were homogenated with ice-cold PBS containing protease inhibitors and membrane-enriched human Nox1, 2, or 4 were harvested. Membranes containing human Nox1, 2, or 4 served to monitor ROS production by lucigenin chemiluminescence in the absence or presence of chemical compound[18].
Text for human Nox2: as §1, §2, §3
Text for human Nox4: as §1, §2, §3

Consider `Oc1cc(-c2ccccc2)nn1-c1ccccn1` [Ewha-89403, 3-phenyl-1-(pyridin-2-yl)-1H-5-hydroxypyrazole], for which the “inhibitory activity on xanthine oxidase” value on xanthine oxidase is “no inhibitory activities”. Further, the “inhibitory activity on glucose oxidase” value on glucose oxidase was “no inhibitory activities”. The compound also displayed a Clt in data set [1] (IV 1 mg/kg) of 1277 ± 162.1 mL/h. In data set [1] (rat, in vivo, IV 1 mg/kg), this compound had an AUC(0-inf) of 418 ± 56 ng·h/mL, an AUC(0-t) of 343 ± 45 ng·h/mL, a C0 of 2520 ± 837 ng/mL and a Vd of 2.64 ± 1.41 L. In addition, the half-life in data set [1] (rat, in vivo, IV 1 mg/kg) was 1.43 ± 0.723 h. Besides, in data set [1] (rat, in vivo, IV 1 mg/kg and oral 10 mg/kg, read-out: Absolute Bioavailability (BA)), the bioavailability was found to be 4.3%. In data set [1] (rat, in vivo, oral 10 mg/kg), the AUC(0-inf) turned out to be 302 ± 133 ng·h/mL, the AUC(0-t) turned out to be 149 ± 39 ng·h/mL, the Cmax came to 194 ± 54 ng/mL and the Tmax came out at 6.12 ± 2.34 min. The compound further showed a half-life in data set [1] (rat, in vivo, oral 10 mg/kg) of 3.3 ± 2.08 h. On human Nox2, this compound had a Ki of 2570 nM. The Ki at human Nox1 was 1450 nM. For the same compound, the Ki at human Nox4 is 3120 nM.

As a reminder, the AUC(0-inf) is total exposure, with the tail of the curve extrapolated. The term AUC(0-t) denotes exposure summed from dosing to a finite time, without extrapolation to infinity. The low end stands for low exposure, the high end for high exposure. Usually half-life stands for the time in which the quantity being followed falls by half. A low value points to fast loss. The term bioavailability denotes the share of a dose that reaches the circulation, judged against a reference dose that is usually intravenous. Usually Cmax stands for the maximum level reached in the sampled fluid or tissue. The term Tmax denotes the time from dosing to the highest level. The term Ki denotes a dissociation constant, usually derived from enzyme kinetics or from competition with a known ligand. A low value points to tighter binding.
